Measured values from ChEMBL document CHEMBL3217640, “Labile natural products” (Medchemcomm, 2012).

Key:
[1] = system: Mus musculus; assay: Toxicity in po dosed mouse; assay type: organism-based; conditions: in vivo
[2] = system: Rattus norvegicus; assay: Antiinflammatory activity in Wistar rat assessed as inhibition of heat-killed Mycobacterium butyricum-induced paw swelling at 10 mg/kg, po administered on day 10 to 15 measured everyday of compound dosing by plethysmometer relative to control; assay type: functional; conditions: 240 h

Structure (SMILES) | LD100 [1] | inhibition in vivo at 10 mg/kg [2]
O=C(O)C1C=C1 | 2.5 mg/kg | –
CCCCCc1oc(CCCCCCCCCCC(=O)OCC)c(C)c1C | – | 74%
